Experimental data published in US20230183193A1, “4-DIFLUOROMETHYL BENZOYL AMIDES WITH HERBICIDAL ACTION” (BAYER CROPSCIENCE AKTIENGESELLSCHAFT, priority 2017, published 2023).

Assays:
Format in all cases: in vivo
[1] = tested on: Veronica persica; assay: Post-emergence herbicidal action, VERPE; conditions: 80 g/ha, comparison with WO 2011035874, Table E
Protocol: (§1) Seeds of monocotyledonous and dicotyledonous weed and crop plants are laid out in sandy loam soil in wood-fiber pots, covered with soil and cultivated in a greenhouse under good growth conditions. 2 to 3 weeks after sowing, the test plants are treated at the one-leaf stage. The compounds of the invention, formulated in the form of wettable powders (WP) or as emulsion concentrates (EC), are then sprayed onto the green parts of the plants in the form of an aqueous suspension or emulsion at a water application rate equating to […], with addition of 0.2% wetting agent. After the test plants have been left to stand in the greenhouse under optimal growth conditions for about 3 weeks, the action of the preparations is assessed visually in comparison to untreated controls (herbicidal action in percent (%): 100% activity=the plants have died, 0% activity=like control plants). […] At the same time, inventive compounds leave Gramineae crops such as barley, wheat, rye, millet/sorghum, corn or rice virtually undamaged when applied post-emergence, even at high active compound dosages. In addition, some substances are also harmless to dicotyledonous crops such as soya, cotton, oilseed rape, sugar beet or potatoes. Some of the compounds according to the invention have high selectivity and are therefore suitable for controlling unwanted vegetation in agricultural crops by the post-emergence method. The data of Tables C and D below illustrate, in an exemplary manner, the […] herbicidal action of the compounds according to the invention, the herbicidal activity being stated in percent.
(§2) For comparison, the herbicidal activity of numerous compounds according to the invention was tested with the structurally closest compounds known from the documents WO 2011/035874, WO 2012/028579 and WO 2012/126932, by the pre- and post-emergence method.

[2] = tested on: Cyperus serotinus; assay: Pre-emergence herbicidal action, CYPES; conditions: for Herbicidal efficacy against CYPES: comparison with WO 2011035874, Table G
Procedure, shortened: (§3)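 Percent herbicidal activity rated by eye 3 weeks after pre-emergence soil-surface application, compared with untreated pots. Seeds sat under sandy loam; sprays carried 0.2% wetting agent.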

[3] = tested on: Viola tricolor; assay: Pre-emergence herbicidal action, VIOTR; conditions: for Herbicidal efficacy against VIOTR: comparison with WO 2011035874, Table H
Procedure, shortened: as §3

[4] = tested on: Amaranthus retroflexus; assay: Post-emergence herbicidal action, AMARE; conditions: 80 g/ha; for Herbicidal efficacy against AMARE: comparison with WO 2011035874, Table E
Procedure, shortened: (§4)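 Greenhouse-grown plants were sprayed at the one-leaf stage, 2–3 weeks after sowing. Damage was scored visually after about 3 weeks against untreated controls, as % action (100% = dead, 0% = like control).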

[5] = tested on: Avena fatua; assay: Pre-emergence herbicidal action, AVEFA; conditions: comparison with WO 2011035874, Table G
Procedure, shortened: as §3

[6] = tested on: Abutilon theophrasti; assay: Pre-emergence herbicidal action, ABUTH; conditions: for Herbicidal efficacy against ABUTH: comparison with WO 2011035874, Table G
Procedure, shortened: as §3

[7] = tested on: Veronica persica; assay: Pre-emergence herbicidal action, VERPE; conditions: comparison with WO 2011035874, Table H
Source text: (§5) 1. Pre-Emergence Herbicidal Action Against Harmful Plants Seeds of monocotyledonous and dicotyledonous weed plants and crop plants are laid out in sandy loam soil in wood-fiber pots and covered with soil. The compounds of the invention, formulated in the form of wettable powders (WP) or as emulsion concentrates (EC), are then applied to the surface of the covering soil in the form of an aqueous suspension or emulsion at a water application rate equating to […], with addition of 0.2% wetting agent. After the treatment, the pots are placed in a greenhouse and kept under good growth conditions for the trial plants. The damage to the test plants is scored visually after a test period of 3 weeks by comparison with untreated controls (herbicidal activity in percent (%): 100% activity=the plants have died, 0% activity=like control plants).
as §2

[8] = tested on: Matricaria inodora; assay: Post-emergence herbicidal action, MATIN; conditions: 80 g/ha
Protocol: as §1, §2

[9] = tested on: Stellaria media; assay: Pre-emergence herbicidal action, STEME; conditions: for Herbicidal efficacy against STEME: comparison with WO 2011035874, Table H
Procedure, shortened: as §3

[10] = tested on: Abutilon theophrasti; assay: Post-emergence herbicidal action, ABUTH; conditions: 80 g/ha
Procedure, shortened: as §4

[11] = tested on: Alopecurus myosuroides; assay: Pre-emergence herbicidal action, ALOMY; conditions: comparison with WO 2011035874, Table G
Procedure, shortened: as §3

[12] = tested on: Setaria viridis; assay: Pre-emergence herbicidal action, SETVI; conditions: for Herbicidal efficacy against SETVI: comparison with WO 2011035874, Table G
Procedure, shortened: as §3

[13] = tested on: Stellaria media; assay: Post-emergence herbicidal action, STEME; conditions: 80 g/ha
Procedure, shortened: as §4

[14] = tested on: Polygonum convolvulus; assay: Pre-emergence herbicidal action, POLCO; conditions: comparison with WO 2011035874, Table H
Procedure, shortened: as §3

[15] = tested on: Viola tricolor; assay: Post-emergence herbicidal action, VIOTR; conditions: 80 g/ha
Procedure, shortened: as §4

[16] = tested on: Amaranthus retroflexus; assay: Pre-emergence herbicidal action, AMARE; conditions: for Herbicidal efficacy against AMARE: comparison with WO 2011035874, Table H
Procedure, shortened: as §3

[17] = tested on: Pharbitis purpureum; assay: Post-emergence herbicidal action, PHBPU; conditions: 80 g/ha
Procedure, shortened: as §4

[18] = tested on: ECHCG; assay: Pre-emergence herbicidal action, ECHCG; conditions: comparison with WO 2011035874, Table G
Source text: as §5

[19] = tested on: Matricaria inodora; assay: Pre-emergence herbicidal action, MATIN; conditions: dosage 320 g/ha, scored visually after 3 weeks vs untreated controls
Procedure, shortened: as §3

[20] = comparison with WO 2011035874, Table E
[21] = dosage 320 g/ha, scored visually after 3 weeks vs untreated controls
[22] = comparison with WO2011035874, Table F

Cn1nnnc1NC(=O)c1ccc(C(F)F)c(S(=O)(=O)CC2CC2)c1I [Example 1-81]
Herbicidal efficacy against VERPE [1]: 30%
Herbicidal efficacy against CYPES ([2]; 80 g/ha): 0%
Herbicidal efficacy against VIOTR ([3]; 80 g/ha): 90%
Herbicidal efficacy against AMARE [4]: 60%
Herbicidal efficacy against AVEFA ([5]; 80 g/ha): 40%
Herbicidal efficacy against ABUTH ([6]; 80 g/ha): 20%
Herbicidal efficacy against VERPE ([7]; 80 g/ha): 70%
Herbicidal efficacy against MATIN [8, 20]: 10%
Herbicidal efficacy against STEME ([9]; 80 g/ha): 50%
Herbicidal efficacy against ABUTH [10, 20]: 30%
Herbicidal efficacy against ALOMY ([11]; 80 g/ha): 0%
Herbicidal efficacy against SETVI ([12]; 80 g/ha): 10%
Herbicidal efficacy against STEME [13, 20]: 0%
Herbicidal efficacy against POLCO ([14]; 80 g/ha): 10%
Herbicidal efficacy against VIOTR [15, 20]: 0%
Herbicidal efficacy against AMARE ([16]; 80 g/ha): 60%
Herbicidal efficacy against PHBPU [17, 20]: 10%
Herbicidal efficacy against ECHCG ([18]; 80 g/ha): 10%

CSc1c(C(F)F)ccc(C(=O)Nc2nonc2C)c1C [Example 5-1]
Herbicidal efficacy against VERPE [1]: 100%
Herbicidal efficacy against CYPES ([2]; 80 g/ha): 50%
Herbicidal efficacy against CYPES ([2]; 320 g/ha): 80%
herbicidal activity CYPES [2, 21]: 80%
Herbicidal efficacy against VIOTR ([3]; 80 g/ha): 100%
Herbicidal efficacy against VIOTR ([3]; 320 g/ha): 100%
herbicidal activity VIOTR [3, 21]: 100%
herbicidal activity MATIN [19]: 100%
herbicidal activity AMARE ([4]; Table D): 80%
Herbicidal efficacy against AMARE [4]: 80%
Herbicidal efficacy against AVEFA ([5]; 80 g/ha): 30%
Herbicidal efficacy against AVEFA ([5]; 320 g/ha): 60%
Herbicidal efficacy against ABUTH ([6]; 80 g/ha): 100%
Herbicidal efficacy against ABUTH ([6]; 320 g/ha): 100%
herbicidal activity ABUTH [6, 21]: 100%
Herbicidal efficacy against VERPE ([7]; 80 g/ha): 100%
Herbicidal efficacy against VERPE ([7]; 320 g/ha): 100%
Herbicidal efficacy against MATIN [8, 20]: 40%
Herbicidal efficacy against MATIN [8, 22]: 40%
Herbicidal efficacy against STEME ([9]; 80 g/ha): 80%
Herbicidal efficacy against STEME ([9]; 320 g/ha): 90%
Herbicidal activity STEME [9, 21]: 90%
herbicidal activity ABUTH ([10]; Table D): 100%
Herbicidal efficacy against ABUTH [10, 20]: 100%
Herbicidal efficacy against ABUTH [10, 22]: 100%
Herbicidal efficacy against ALOMY ([11]; 80 g/ha): 30%
Herbicidal efficacy against ALOMY ([11]; 320 g/ha): 40%
Herbicidal efficacy against SETVI ([12]; 80 g/ha): 80%
Herbicidal efficacy against SETVI ([12]; 320 g/ha): 100%
herbicidal activity SETVI [12, 21]: 100%
Herbicidal activity STEME ([13]; Table D): 100%
Herbicidal efficacy against STEME [13, 20]: 100%
Herbicidal efficacy against STEME [13, 22]: 100%
Herbicidal efficacy against POLCO ([14]; 80 g/ha): 80%
Herbicidal efficacy against POLCO ([14]; 320 g/ha): 100%
herbicidal activity VIOTR ([15]; Table D): 100%
Herbicidal efficacy against VIOTR [15, 20]: 100%
Herbicidal efficacy against VIOTR [15, 22]: 100%
Herbicidal efficacy against AMARE ([16]; 80 g/ha): 100%
Herbicidal efficacy against AMARE ([16]; 320 g/ha): 100%
herbicidal activity AMARE [16, 21]: 100%
Herbicidal activity PHBPU ([17]; Table D): 90%
Herbicidal efficacy against PHBPU [17, 20]: 90%
Herbicidal efficacy against PHBPU [17, 22]: 90%
Herbicidal efficacy against ECHCG ([18]; 80 g/ha): 80%
Herbicidal efficacy against ECHCG ([18]; 320 g/ha): 100%
